For this assay, the target named is ACCase. The conditions noted are these: read-out: I50, R biotype, both substitutions found, zygosity not given, stated gain, pH 8.3, 34 °C, 1.5 mM ATP, 5 mM MgCl2, 15 mM NaH14CO3, 5 mM acetyl-CoA. The text has this: ATP-dependent NaH14CO3 incorporation into acid-stable product on ACCase

Like-named read-outs stand apart in the source and are kept apart here.

In the case of `CC(Oc1ccc(Oc2nc3ccc(Cl)cc3o2)cc1)C(=O)O` (stereo not drawn) [Fenoxaprop acid], for the setting “table prints the ethyl ester, methods state the acid”, the IC50 was found to be 7.85 µM.

For `C[C@@H](Oc1ccc(Oc2ccc(C#N)cc2F)cc1)C(=O)O` [cyhalofop acid], where the note is “table prints the butyl ester, methods list the acid”, the IC50 is 77.7 µM.

As for `CC(Oc1ccc(Oc2ccc(Cl)cc2Cl)cc1)C(=O)O` (stereo not drawn) [diclofop acid], the IC50 (table prints the methyl ester, methods list the acid) was 7.14 µM.

For the molecule `CCc1cc(C)cc(CC)c1-c1c(OC(=O)C(C)(C)C)n2n(c1=O)CCOCC2` [pinoxaden], the IC50 is 9.13 µM.

In the case of `CCCC(=NOCC)C1=C(O)CC(CC(C)SCC)CC1=O` (stereo not drawn) [sethoxydim], the IC50 was found to be 1500 µM.

Take `CCON=C(CC)C1=C(O)CC(c2c(C)cc(C)cc2C)CC1=O` (stereo not drawn) [tralkoxydim]: the IC50 was found to be 8.81 µM.

(Values after article PMC4613257, “Ile-1781-Leu and Asp-2078-Gly Mutations in ACCase Gene, Endow Cross-resistance to APP, CHD, and PPZ in Phalaris minor from Mexico” (International Journal of Molecular Sciences, 2015).)
